According to article doi:10.1101/669069v1 (biorxiv, 2019):

Molecular target: T1, uMAT (MAT from U. urealiticum) (Ureaplasma urealyticum, UniProt A0ABM9XK24)
T1 sequence (A0ABM9XK24 1-376): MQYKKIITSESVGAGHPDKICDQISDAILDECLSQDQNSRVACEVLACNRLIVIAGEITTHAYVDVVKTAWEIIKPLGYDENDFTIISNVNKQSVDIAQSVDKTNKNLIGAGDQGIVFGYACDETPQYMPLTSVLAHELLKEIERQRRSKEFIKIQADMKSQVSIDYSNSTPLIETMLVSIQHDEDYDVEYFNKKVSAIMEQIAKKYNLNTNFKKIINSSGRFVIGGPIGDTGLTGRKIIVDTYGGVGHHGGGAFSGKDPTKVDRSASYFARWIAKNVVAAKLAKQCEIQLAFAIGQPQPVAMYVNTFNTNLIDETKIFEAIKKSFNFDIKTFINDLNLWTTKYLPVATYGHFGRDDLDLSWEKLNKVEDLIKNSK
Assay: thermal shift, SYPRO-orange
Format: binding
Settings: read-out: dTm (first transition) at 1 mM

ΔTm at 1000 µM [°C]	SMILES
> 10	C[S+](CC[C@H](N)C(=O)O)C[C@H]1O[C@@H](n2cnc3c(N)ncnc32)[C@H](O)[C@@H]1O (some centres unmarked) [SAM, S-adenosylmethionine]
~2	Nc1ncnc2c1ncn2[C@@H]1O[C@H](COP(=O)(O)OP(=O)(O)NP(=O)(O)O)[C@@H](O)[C@H]1O [AMPPNP]
